From PubChem BioAssay (NCI)
“And” between values parts separate entries of the source, which are not always exact repeats. Equal entries are not always repeated.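 Dose response: 5 concentrations. Exposure: 48 h. Format: 96-well plates. Endpoint: linear interpolation; highest concentration if not reached. At the GI50, growth is halved. TGI denotes the concentration required for complete inhibition of growth.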

Key:
Test in all cases: inhibition of tumour cell growth, NCI panel, 48 h
A549 NSCLC = test system: A549 NSCLC
DMS 114 small cell lung = test system: DMS 114 small cell lung
HCT-15 colon = test system: HCT-15 colon
HOP-18 NSCLC = test system: HOP-18 NSCLC
HS 578T breast = test system: HS 578T breast
MDA-MB-231 breast = test system: MDA-MB-231 breast
OVCAR-4 ovarian = test system: OVCAR-4 ovarian
SF-295 CNS = test system: SF-295 CNS
SW-620 colon = test system: SW-620 colon
SK-OV-3 ovarian = test system: SK-OV-3 ovarian

Row | SMILES | TGI (A549 NSCLC) [µM] | TGI (DMS 114 small cell lung) [µM] | TGI (HCT-15 colon) [µM] | TGI (HOP-18 NSCLC) [µM] | TGI (HS 578T breast) [µM] | TGI (MDA-MB-231 breast) [µM] | GI50 (OVCAR-4 ovarian) [nM] | TGI (OVCAR-4 ovarian) [µM] | TGI (SF-295 CNS) [µM] | TGI (SW-620 colon) | TGI (SK-OV-3 ovarian) [µM]
1 | CCC(C)SC1SCC2C(=O)N(C)C3(CC3C)C(=O)OCC(NC(=O)c3nc4ccccc4cc3O)C(=O)NC(C)C(=O)N(C)C1C(=O)N(C)C1(CC1C)C(=O)OCC(NC(=O)c1nc3ccccc3cc1O)C(=O)NC(C)C(=O)N2C (centres undefined) | 1.91 | 0.000279 | 0.0538 | 24.1 | 0.000309 | 0.000567 | 0.187 | 0.0182 | 0.00153 | 0.00439 µM and < 0.034 µM | –
2 | O=C(/C=C/c1c(O)ccc2ccccc12)c1ccc([N+](=O)[O-])cc1 | > 100 | 41.1 | > 66.8 | 47.6 | – | – | – | 36 | > 100 | > 57.6 µM | > 100
3 | CN(C)CC1CCCC/C1=N/O (centres undefined) | > 100 | > 100 | > 100 | > 100 | – | – | – | > 100 | > 100 | > 100 µM | > 100
4 | COc1cc2c(cc1OC)C(Cl)C(c1ccc(F)cc1)=C2Cl (centres undefined) | 32.8 | 28.5 | 28.4 | 30.5 | > 100 | 27 | – | – | 29 | 30.4 µM | 41.9
5 | COc1c(CC(C)=O)ccc2c1C(=O)c1ccc(C=O)c(OC(C)=O)c1C2=O | > 100 | 33.2 | 29.5 | 40.6 | – | – | – | 30.4 | 53.3 | 33.7 µM | > 100
6 | Cc1ccc(S(=O)(=O)N2CCC2c2ccccc2)cc1 (centres undefined) | > 100 | > 100 | > 100 | > 100 | – | – | – | > 100 | > 100 | > 100 µM | > 100
7 | C[C@@]1(O)CC[C@]2(C)C3CCCC3[C@H]12 (some centres undefined) | > 100 | > 100 | > 100 | > 100 | – | – | – | > 100 | > 100 | > 100 µM | > 100
8 | O=C1c2ccccc2C(=O)c2c(/C=C\N3CCCCC3)ccnc21 | 5.84 | 4.2 | 6.41 | 2.96 | 4.32 | 73.3 | – | 28.4 | 5.25 | 4.48 µM | 50.9
9 | CCOc1ccc(NC2=CC(=O)C(=O)c3ccccc32)cc1 | 7.65 | 3.71 | 6.72 | 4.61 | 5.9 | 54.5 | – | 7.8 | 5.4 | 3.53 µM | 24.9
